Measured values from publication PMC6776155 (Breeding Science, 2019).

Tested on: TrGDH (His6-TF-TrGDH)
Assay: NADPH oxidation at […] nm, Lineweaver-Burk
Type: biochemical, Trichurus sp.
Conditions: amination; 2-OG 1-10 mM, 100 μM NADPH, NH4Cl co-substrate, Tris pH 8.0, 25 °C

Km: 1570 ± 190 µM
SMILES: O=C(O)CCC(=O)C(=O)O [2-oxoglutarate]
